Measured values published in US20250127896A1, “CHIMERIC TIM4 RECEPTORS AND USES THEREOF” (CERO THERAPEUTICS HOLDINGS, INC., priority 2021, published 2025).

Experiments:
REC-1 cells [1] = experiment: Cytokine induction in CER T / REC-1 co-cultures (multiparametric ELISA); type: cell-based; details: for cytokine response (GrB, IFN-γ, TNF-α) with BTK inhibitor: ibrutinib-induced phosphatidylserine exposure
Description: FIGS. 16A-16H: Induction of Cytokines in Ibrutinib-Treated Co-Cultures of CER1183 and CER1234 T cells and REC-1 Target Cells. Samples depicted in bar graphs from left to right, untransduced, CER-1183, and CER-1234. FIG. 16A: TNFα induction. FIG. 16B: IL-2 induction. FIG. 16C: IFNγ. FIG. 16D: IL-5 induction. FIG. 16E: IL-6 induction. FIG. 16F: IL-10 induction. FIG. 16G: IL-4 induction. FIG. 16H: granzyme B induction.
Cytokine induction was assessed by multiparametric ELISA using conditioned supernatants harvested after 96 hours in the cytotoxicity assay described above.
CER T-cell activation was assessed by measuring induction of IFN-gamma by plate- and cell-based assays. Single induction plate assay: varying concentrations of phosphatidylserine (PS) or phosphatidylethanolamine (PE), a control membrane phospholipid not recognized by wild type TIM-4 (wtTIM-4), were coated onto high-binding tissue culture plates. CER T cells were added and IFN-γ levels were measured 24 hours after ligand exposure by ELISA. EC50 concentrations were determined by nonlinear regression (agonist vs. response-variable slope (4 parameters)). Induction by recursive stimulation plate assay: CER T cells were added to phosphatidylserine coated plates (2.5-20 μg/mL PS coating). Five days later, CER T cells were transferred to uncoated plates with fresh T cell optimizer media for 24 hours. Then, CER T cells were transferred again to a fresh PS coated plate. Supernatant was collected to assess IFN-γ induction by ELISA at various timepoints during re-stimulation (24, 72, and 120 hours). Cell-based assay: cytokine induction was assessed by multiparametric ELISA using conditioned supernatants harvested after 120 hours from the cytotoxicity assay described below.

[2] = test system: A2780 ovarian cancer cells; experiment: T cell phenotype (CCR7, CD4/CD8) and proliferation in A2780 / PARP inhibitor co-culture; type: cell-based, human; details: for CCR7 expression (% CCR7+ cells in Tim4+ T cells): 120 hours co-culture with olaparib-treated A2780 cells; for CER T cell proliferation: co-cultures treated with PARPi vs wtTIM-4 T cells or no drug, E:T 1:1
Source text: FIGS. 27A-27B show a (FIG. 27A) schematic of chimeric Tim4 receptors, CER-1234 and CER1236 of the present disclosure; and (FIG. 27B) a schematic of assay set up for assessing immune phenotype of the chimeric Tim4 receptors in co-culture with PARP inhibitor treated ovarian cancer cells. CER-1234 and CER1236 have an extracellular Tim4 binding domain, CD28 transmembrane domain, CD28 signaling domain, TLR2 signaling domain, and CD3ζ signaling domain, and showing the orientation of the signaling domains in the chimeric Tim4 receptor constructs. A control molecule, CER-1183, having a Tim4 extracellular binding domain, a Tim4 transmembrane domain, and Tim4 signaling domain is also depicted.
Samples on bar graph from left to right: A2780+ T cell, A2780+ T cell +niraparib, and A2780+ T cell +olaparib. […] For FIGS. 29A-29C, co-culture conditions A2780+ T cell; A2780+ T cell +niraparib; A27080+ T cell +olaparib are shown from left to right in the bar graph for each donor T cell sample.
FIGS. 30A-30C show CD4/CD8 T cell ratio at 120 hours of co-culture of chimeric Tim4 receptor transduced T cells, olaparib or niraparib, and target A2780 ovarian cancer cells. Samples on bar graph from left to right: A2780+ T cell, A2780+T cell +niraparib, and A2780+ T cell +olaparib. […] For FIGS. 4A-4C, co-culture conditions A2780+ T cell; A2780+ T cell +niraparib; A27080+T cell +olaparib are shown from left to right in the bar graph for each donor T cell sample.
Expression of TIM-4, CD45RA, and CCR7 as well as CD4/CD8 ratios were evaluated by flow cytometry using commercially available fluorochrome-conjugated antibodies. Proliferation was measured by flow cytometry using precision count beads to determine the absolute counts of viable T cells at the end of the co-culture. T-cell proliferation is reported as the fold expansion of T cell counts at 120 hours relative to 0 hours.

REC-1 cells [3] = experiment: T-cell activation markers PD-1 and 4-1BB in co-culture with REC-1 cells (flow cytometry); type: cell-based; details: co-culture with REC-1 cells in the presence of 0.5 μM ibrutinib, 96 hours
Description: FIGS. 15A-15B: Induction of Cell-Surface Markers of T-Cell Activation in Ibrutinib-Treated Co-Cultures of CER1183 and CER1234 T cells and REC-1 Target Cells. Samples depicted in bar graphs from left to right, untransduced, CER-1183, and CER-1234. FIG. 15A: PD-1 expression in co-cultures. FIG. 15B: 4-1BB expression in co-cultures.
T-cell activation markers programmed death-1 (PD-1) and 4-1BB were evaluated on viable CD3+ T cells by flow cytometry using commercially available fluorochrome-conjugated antibodies. […] Assays were conducted 96 hours after initiation of co-culture of CER T cells with REC-1 cells.

[4] = test system: JeKo-1 MCL mCherry+ cells; experiment: IFN-γ secretion of CER1236 T cells co-cultured with ibrutinib-treated JeKo-1 cells (ELLA); type: cell-based; details: JeKo-1 pretreated 20 μM Ibrutinib 48 h, co-culture 0.5 μM Ibrutinib, 120 h
Description: After 120 h, IFN-γ secretion was measured using ELLA automated ELISA.

NSCLC H1975 cells = experiment: Cytokine production by CER1236 T cells co-cultured with H1975 cells and osimertinib (Ella); type: cell-based; details: 96 h, E:T 1:4, vs vehicle and untransduced T cells
Description: FIG. 40: Graphs showing cytokine production by CER1236 T cells co-cultured with NSCLC H1975 cells with 100 nM osimertinib or vehicle (left to right: granzyme B, TNFα, IL-6, and IFNγ).
Cytokine production was also measured in CER1236 T cells co-cultured with H1975 NSCLC cells pre-treated with osimertinib or vehicle. Ten-thousand NSCLC H1975 cells were cultured for 24 h with 100 nM Osimertinib or vehicle (DMSO) and then co-cultured with CER T cells for 96 h at an E:T of 1:4 in the presence or absence of 4.88 nM Osimertinib or vehicle. Effector:Target ratio was 1:4, and H1975 cells were plated at 10,000 cells/well. Cytokine production was determined by Ella assay.

| Substance | IL-2, IL-4 and IL-6 (REC-1 cells [1]; co-culture with REC-1 cells, 0.5 μM ibrutinib) | cytokine induction: TNF-α, IFN-γ, IL-10, IL-5, granzyme B (REC-1 cells [1]; co-culture with REC-1 cells, 0.5 μM ibrutinib, 96 hours) | cytokine response (GrB, IFN-γ, TNF-α) with BTK inhibitor (REC-1 cells [1]) | cytokine response (GrB, IFN-γ, TNF-α) with BTK inhibitor (REC-1 cells [1]; listed as CER1234) | CCR7 expression (% CCR7+ cells in Tim4+ T cells) [2] | CER T cell proliferation [2] | PD-1 and 4-1BB expression on the T-cell surface (REC-1 cells [3]) | IFN-γ response with ibrutinib [4] | CD4/CD8 ratio ([2]; 120 hours co-culture with PARPi-treated A2780, donor 38 and donor 41) | cytokine production (granzyme B, TNFα, IL-6, IFNγ), combination with osimertinib (NSCLC H1975 cells) |
| --- | --- | --- | --- | --- | --- | --- | --- | --- | --- | --- |
| CER-1234: chimeric Tim4 receptor: Tim4 binding domain-CD28tm-CD28-TLR2 TIR-CD3z, SEQ ID NO:18; tested as transduced T cells | nominally increased | induced | production of Th1 cytokines | enhances CER1234 T cell cytokine response | Higher CCR7 expression | proliferated in co-cultures treated with PARPi | increased PD-1 and 4-1BB expression | – | – | – |
| CER-1236: chimeric Tim4 receptor: Tim4 binding domain-CD28tm-CD28-CD3z-TLR2 TIR, SEQ ID NO:19; tested as transduced T cells | – | – | – | – | Higher CCR7 expression | proliferated in co-cultures treated with PARPi | – | enhances CER1236 T cell IFN-γ response | higher CD4/CD8 ratios | increased cytokine production |
